Measured values as given in US11339419B2, “Scavenger protein(s) for improved preservation of analyte detection sensor(s) and method(s) of use thereof” (Siemens Healthcare Diagnostics Inc., priority 2017, dated 2022).
Several values for one entry are separate records, joined by “and”; a condition that tells them apart may be missing. Equal values may be shown once.

Tested on: creatininase (BBI Solutions)
Test: BBI Solutions Creatininase Enzyme Absorbance with BSA and MIT
Assay type: biochemical
[1] = Day 0, 5 mg/mL BSA, no MIT (row of 50 ppm MIT)
[2] = Day 0, 5 mg/mL BSA, no MIT (row of 100 ppm MIT)
[3] = Day 0, 25 mg/mL BSA, no MIT (row of 50 ppm MIT)
[4] = Day 0, 25 mg/mL BSA, no MIT (row of 100 ppm MIT)
[5] = Day 0, 50 mg/mL BSA, no MIT (row of 50 ppm MIT)
[6] = Day 0, 50 mg/mL BSA, no MIT (row of 100 ppm MIT)
[7] = Day 0, 50 ppm MIT, 25 mg/mL BSA
[8] = Day 0, 50 ppm MIT, 50 mg/mL BSA
[9] = Day 4, 5 mg/mL BSA, no MIT (row of 50 ppm MIT)
[10] = Day 4, 5 mg/mL BSA, no MIT (row of 100 ppm MIT)
[11] = Day 4, 25 mg/mL BSA, no MIT (row of 50 ppm MIT)
[12] = Day 4, 25 mg/mL BSA, no MIT (row of 100 ppm MIT)
[13] = Day 4, 50 mg/mL BSA, no MIT (row of 50 ppm MIT)
[14] = Day 4, 50 mg/mL BSA, no MIT (row of 100 ppm MIT)
[15] = Day 14, 5 mg/mL BSA, no MIT (row of 50 ppm MIT)
[16] = Day 14, 5 mg/mL BSA, no MIT (row of 100 ppm MIT)
[17] = Day 14, 25 mg/mL BSA, no MIT (row of 50 ppm MIT)
[18] = Day 14, 25 mg/mL BSA, no MIT (row of 100 ppm MIT)
[19] = Day 14, 50 mg/mL BSA, no MIT (row of 50 ppm MIT)
[20] = Day 14, 50 mg/mL BSA, no MIT (row of 100 ppm MIT)

Method: Table 5-8 depict aqueous solutions comprising varying concentrations of BSA (at concentrations of 0 mg/mL, 5 mg/mL, 25 mg/mL, and 50 mg/mL), varying concentrations of MIT (at concentrations of 50 parts per million and 100 parts per million) or Proclin™ 300 (at concentrations of 0.7% and 1.4%) biocide over a particular time period (measurements were taken at days 0, 4, and 14 after exposure of the enzyme(s) to the particular aqueous solutions) and the associated enzyme absorbance measurements for creatininase (commercially offered for sale by BBI Solutions and Toyobo). Absorbance measurements of the creatininase enzyme(s) were taken via spectrophotometer for each aqueous solution (represented as columns 1-5 in Tables 5-8—column 6 is a blank), the absorbance being directly proportional to the enzyme activity being measured-which for Tables 5-8 is creatininase enzyme activity. Accordingly, the higher the absorbance measurement, the higher the enzyme activity of creatininase. Columns 7-11 represent five replicate readings in which the solution only contains BSA (i.e., there is no biocide(s) present in the solution). In addition, the mean values, standard deviations, and coefficients of variation are all presented for the enzyme activity/absorbance of each aqueous solution. All measurements were taken at 37° C.
As depicted in Table 5, creatininase (commercially offered for sale by BBI Solutions) enzyme activity is measured against various concentrations of MIT (biocide) and BSA (scavenger protein) over a period of 14 days (with absorbance measurement taken at 0, 4, and 14 days) for five different aqueous solutions (represented as columns 1-5—column 6 is a blank).

## bovine serum albumin [BSA]
[1]
  Creatininase Enzyme Absorbance, columns 7-11: 0.717 and 0.707 and 0.75 and 0.728
  MEAN (columns 7-11): 0.51
[2]
  Creatininase Enzyme Absorbance, columns 7-11: 0.767 and 0.759 and 0.781 and 0.761 and 0.773
  MEAN (columns 7-11): 0.56
[3]
  Creatininase Enzyme Absorbance, columns 7-11: 0.736 and 0.712 and 0.709 and 0.752 and 0.746
  MEAN (columns 7-11): 0.52
[4]
  Creatininase Enzyme Absorbance, columns 7-11: 0.688 and 0.694 and 0.72 and 0.733 and 0.705
  MEAN (columns 7-11): 0.50
[5]
  Creatininase Enzyme Absorbance, columns 7-11: 0.759 and 0.723 and 0.742 and 0.773 and 0.777
  MEAN (columns 7-11): 0.54
[6]
  Creatininase Enzyme Absorbance, columns 7-11: 0.661 and 0.68 and 0.708 and 0.702 and 0.686
  MEAN (columns 7-11): 0.48
Day 0, 50 ppm MIT vs no MIT, 5 mg/mL BSA
  % Bias: 6.0%
Day 0, 50 ppm MIT vs no MIT, 25 mg/mL BSA
  % Bias: 4.8%
Day 0, 50 ppm MIT vs no MIT, 50 mg/mL BSA
  % Bias: 3.6%
Day 0, 50 ppm MIT, 5 mg/mL BSA
  Creatininase Enzyme Absorbance: 0.774 and 0.737 and 0.726 and 0.733 and 0.74
  MEAN: 0.54
[7]
  Creatininase Enzyme Absorbance: 0.751 and 0.713 and 0.818 and 0.733
  MEAN: 0.54
[8]
  Creatininase Enzyme Absorbance: 0.773
  MEAN: 0.56
Day 0, 100 ppm MIT vs no MIT, 5 mg/mL BSA
  % Bias: 6.8%
Day 0, 100 ppm MIT vs no MIT, 25 mg/mL BSA
  % Bias: 8.0%
Day 0, 100 ppm MIT vs no MIT, 50 mg/mL BSA
  % Bias: 3.7%
Day 0, 100 ppm MIT, 5 mg/mL BSA
  MEAN: 0.59
Day 0, 100 ppm MIT, 25 mg/mL BSA
  MEAN: 0.54
Day 0, 100 ppm MIT, 50 mg/mL BSA
  MEAN: 0.49
[9]
  Creatininase Enzyme Absorbance, columns 7-11: 0.95 and 0.906 and 0.917 and 0.926 and 0.911
  MEAN (columns 7-11): 0.71
[10]
  Creatininase Enzyme Absorbance, columns 7-11: 0.927 and 0.89 and 0.906 and 0.925 and 0.892
  MEAN (columns 7-11): 0.69
[11]
  Creatininase Enzyme Absorbance, columns 7-11: 0.821 and 0.794 and 0.77 and 0.793
  MEAN (columns 7-11): 0.59
[12]
  Creatininase Enzyme Absorbance, columns 7-11: 0.793 and 0.779 and 0.783 and 0.8 and 0.814
  MEAN (columns 7-11): 0.58
[13]
  Creatininase Enzyme Absorbance, columns 7-11: 0.621 and 0.592 and 0.597 and 0.625 and 0.622
  MEAN (columns 7-11): 0.40
[14]
  Creatininase Enzyme Absorbance, columns 7-11: 0.647 and 0.629 and 0.631 and 0.657 and 0.637
  MEAN (columns 7-11): 0.43
Day 4, 50 ppm MIT vs no MIT, 5 mg/mL BSA
  % Bias: 3.8%
Day 4, 50 ppm MIT vs no MIT, 25 mg/mL BSA
  % Bias: 4.5%
Day 4, 50 ppm MIT vs no MIT, 50 mg/mL BSA
  % Bias: 14.7%
Day 4, 50 ppm MIT, 5 mg/mL BSA
  MEAN: 0.73
Day 4, 50 ppm MIT, 25 mg/mL BSA
  MEAN: 0.61
Day 4, 50 ppm MIT, 50 mg/mL BSA
  MEAN: 0.46
Day 4, 100 ppm MIT vs no MIT, 5 mg/mL BSA
  % Bias: 2.3%
Day 4, 100 ppm MIT vs no MIT, 25 mg/mL BSA
  % Bias: 2.7%
Day 4, 100 ppm MIT vs no MIT, 50 mg/mL BSA
  % Bias: 14.0%
Day 4, 100 ppm MIT, 5 mg/mL BSA
  MEAN: 0.71
Day 4, 100 ppm MIT, 25 mg/mL BSA
  MEAN: 0.60
Day 4, 100 ppm MIT, 50 mg/mL BSA
  MEAN: 0.49
[15]
  Creatininase Enzyme Absorbance, columns 7-11: 1.062 and 1.055 and 1.027 and 1.067 and 1.069
  MEAN (columns 7-11): 0.80
[16]
  Creatininase Enzyme Absorbance, columns 7-11: 1.061 and 1.054 and 1.018 and 1.051
  MEAN (columns 7-11): 0.79
[17]
  Creatininase Enzyme Absorbance, columns 7-11: 0.931 and 0.918 and 0.882 and 0.905 and 0.92
  MEAN (columns 7-11): 0.65
[18]
  Creatininase Enzyme Absorbance, columns 7-11: 0.91 and 0.907 and 0.879 and 0.898 and 0.905
  MEAN (columns 7-11): 0.64
[19]
  Creatininase Enzyme Absorbance, columns 7-11: 0.745 and 0.73 and 0.711 and 0.727 and 0.732
  MEAN (columns 7-11): 0.47
[20]
  Creatininase Enzyme Absorbance, columns 7-11: 0.74 and 0.737 and 0.713 and 0.724
  MEAN (columns 7-11): 0.47
Day 14, 50 ppm MIT vs no MIT, 5 mg/mL BSA
  % Bias: 1.8%
Day 14, 50 ppm MIT vs no MIT, 25 mg/mL BSA
  % Bias: −0.5%
Day 14, 50 ppm MIT vs no MIT, 50 mg/mL BSA
  % Bias: −2.4%
Day 14, 50 ppm MIT, 5 mg/mL BSA
  MEAN: 0.81
Day 14, 50 ppm MIT, 25 mg/mL BSA
  MEAN: 0.65
Day 14, 50 ppm MIT, 50 mg/mL BSA
  MEAN: 0.46
Day 14, 100 ppm MIT vs no MIT, 5 mg/mL BSA
  % Bias: 0.3%
Day 14, 100 ppm MIT vs no MIT, 25 mg/mL BSA
  % Bias: −1.0%
Day 14, 100 ppm MIT vs no MIT, 50 mg/mL BSA
  % Bias: 0.7%
Day 14, 100 ppm MIT, 5 mg/mL BSA
  MEAN: 0.79
Day 14, 100 ppm MIT, 25 mg/mL BSA
  MEAN: 0.64
Day 14, 100 ppm MIT, 50 mg/mL BSA
  MEAN: 0.47
Days 4 and 14, 5, 25 and 50 mg/mL BSA, with MIT
  absorbance of the creatininase enzyme compared to samples containing 0 mg/mL of BSA: increased absorbance
Days 4 and 14, only BSA, no MIT
  creatininase absorbance, solutions 7-11: increased (or at least maintained)
